{
  "source": "patent US20050277664A1",
  "about": "“Monoamine neurotransmitter re-uptake inhibitor for the inhibition of beta-amyloid generation” (Boehringer Ingelheim International GmbH, priority 2004, published 2005)",
  "key": {"[1]": {"system": "cerebral Aβ40 levels in APPtg mice", "test": "Cerebral Aβ40 levels in APPtg mice after oral treatment", "format": "in vivo", "conditions": "for Level of Aβ40, reduction (−) and/or stimulation (+) of cerebral Aβ levels: per os", "protocol": "(§1) APPtg mice at 3 to 4 months of age were used. A compound of formula (IA) was prepared and administered in a suspension of 0.5% Tylose solution.\n(§2) Controls were treated with Tylose only. Each group consisted of 12 or 13 mice with equal numbers of each sex. In the short term study, the animals were treated for the time period of 2.5 days. Twice a day, a dose of 3 mg/kg was applied with interruption times of 11.5-12.5 hours. On the last day (day of sacrifice), one dose of 3 mg/kg was administered and the mice were sacrificed 5.5 hours later. […] In a second long term four weeks study, 3 mg/kg/day of compound of formula IA were administered, subdivided into two subdoses, with an interruption time of 10-12 hours during the day. Each version of the in vivo experiments has been performed once.\n(§3) The murine brains were rapidly removed from the skull and divided along the medial fissure. The cerebellum was removed before each half was quickly frozen down on a metal plate that had been cooled down on dry ice. Brains were placed in Eppendorf tubes, frozen in liquid nitrogen, and stored at −80° C. until needed for Aβ extractions or compound measurements.\n(§4) Brains were thawed on ice. Mouse hemibrains were extracted in a homogenisation buffer consisting of 20 mM Tris (pH 8.5), 0.2% Triton X-100, and complete proteinase inhibitor with EDTA (Roche Diagnostics GmbH, Mannheim, Germany). The brains were homogenized in a volume […] 5 times the weight of the brain (mg) using a 2 ml Douncer Homogenator (B. Braun, Melsungen, Germany). This was carried out 12 times with a Stempel L, followed by a Stempel S. The homogenates were then ultracentrifuged in Ultracentrifuge tubes (Beckman, CA, USA) at 200.000 g (UZ Sorvall RC 120 GX, KENDRO Laboratories Products GmbH, Hanau, Germany) at 4° C. for 1 hour. The post nuclear supernatants containing the soluble Aβ were collected and measured in a Sandwich ELISA (s.a.).\n(§5) Statistical analyses of data was done by one-sided t tests for differences between treatment and control group to determine the p values."}, "[2]": {"system": "Aβ42 secretion by U373 astrocytoma cells expressing human wtAPP695", "test": "Aβ secretion assay, Aβ42 (sandwich ELISA of cell supernatant)", "format": "cell-based", "conditions": "for inhibition at 1.56 µM / inhibition at 3.12 µM / inhibition at 6.25 µM / inhibition at 12.5 µM / inhibition at 25 µM / inhibition at 50 µM: Homo sapiens, U373 MG, 17 h, read-out: Aβ42 Secretion, inhibition (−) or stimulation (+); for generation/secretion of Aβ42 (result in words): dose response", "protocol": "(§6) Cell culture and drug treatment: U373 astrocytoma cells expressing human wtAPP695 were used to test the compound of formula IA for Aβ lowering potential. Cells were cultured in 96 well plates in DMEM medium, additionally supplemented with 10% FCS and 1% glutamine, until they have grown to a confluent cell layer. The cells were then incubated for 17 hours in the presence of the compound of formula IA in DMEM medium. Afterwards, 100 μl of the supernatant had been removed and measured with the ELISA as described below to determine the Aβ42 peptide concentrations. The cells were washed, incubated again for 4 hours with the compound, before measuring the Aβ40 levels. AlamarBlue assays (Serotec, Oxford, UK) were conducted to determine cytotoxicity.\n(§7) Monoclonal 6E10 against Aβ1-17 (Signet Laboratories, Inc., Dedham, Mass., USA) was used to capture Aβ40; SGY 3160 against Aβ1-16 (Mayo Medical Ventures, Rochester, Minn., USA) to capture Aβ42. Both antibodies were diluted in PBS at a concentration of 8 μg/ml to coat a 96 well plate. Blocking was completed with 1% Block ACE (blocking reagent) (Dainippon Seiyaku, Asaka, Japan) in PBS for 2 hrs. The plates were then washed with PBST and the cell supernatants, diluted 1:1.5 in EC buffer (0.1 M NaH2PO4, 0.1 M Na2HPO4, 2 mM EDTA, 0.4 M NaCl, 0.2% BSA, 0.05% CHAPS, 0.4% Block ACE, 0.05% NaN3 pH 7.0) have been added into the wells, before the plates were stored at 4° C. over night. Detector antibodies (alkaline phosphatase-coupled ROβ40 and ROβ42 against Aβ40 and Aβ42, respectively), were loaded onto the wells at 0.1 μg/ml in ACE Block for 2 hrs. The reporter system used was the Tropix ELISA-Light chemiluminescent detection system (Applied Biosystems (Tropix), Bedford, Mass., USA).\n(§8) The compound of formula IA has been tested in an Aβ secretion assay. In this particular in vitro assay, the astrocytoma cell line U373 that stably over-expresses wild-type human amyloid precursor protein (APP) has been exposed to this compound. APP is proteolytically cleaved by 2 enzymes, BACE and γ secretase, to generate the Aβ peptides. Because of a flexible APP cleavage site of γ secretase, several Aβ isoforms are generated, majorly Aβ40 and Aβ42. The rate of Aβ generation/secretion into the medium in the presence or absence of the compound of formula IA in different concentrations has been measured by ELISA (Table 1). The % inhibition (−) or stimulation (+) has been determined in 2 independent experiments."}, "[3]": {"system": "Aβ40 secretion by U373 astrocytoma cells expressing human wtAPP695", "test": "Aβ secretion assay, Aβ40 (sandwich ELISA of cell supernatant)", "format": "cell-based", "conditions": "for inhibition at 1.56 µM / inhibition at 3.12 µM / inhibition at 6.25 µM / inhibition at 12.5 µM / inhibition at 25 µM / inhibition at 50 µM: Homo sapiens, U373 MG, 4 h, read-out: Aβ40 Secretion, inhibition (−) or stimulation (+); for generation/secretion of Aβ40 (result in words): dose response", "protocol": "as §6, §7, §8"}, "[4]": {"system": "cerebral Aβ42 levels in APPtg mice", "test": "Cerebral Aβ42 levels in APPtg mice after oral treatment", "format": "in vivo", "conditions": "for Level of Aβ42, reduction (−) and/or stimulation (+) of cerebral Aβ levels: per os", "protocol": "as §1, §2, §3, §4, §5"}, "[5]": {"conditions": "Exp. 1, further 4 hours incubation"}, "[6]": {"conditions": "Exp. 2, further 4 hours incubation"}},
  "note": "Like-named read-outs stand apart in the source and are kept apart here.",
  "data": [
    {"smiles": "CCOC[C@H]1C2CCC(C[C@@H]1c1ccc(Cl)c(Cl)c1)N2C", "note": "(some centres unmarked) [Formula IA]", "values": [
      {"measurement": "Level of Aβ40, reduction (−) and/or stimulation (+) of cerebral Aβ levels", "setting": "[1]; APPtg mice, 2 weeks, 1 × 3.0 mg/kg/day, mean ± SEM", "result": "−18.6 ± 7.1", "unit": "%"},
      {"measurement": "Level of Aβ40, reduction (−) and/or stimulation (+) of cerebral Aβ levels", "setting": "[1]; APPtg mice, 4 weeks, 2 × 1.5 mg/kg/day, mean ± two-sided confidence interval", "result": "−17.2 ± 8.7", "unit": "° %"},
      {"measurement": "Level of Aβ40, reduction (−) and/or stimulation (+) of cerebral Aβ levels", "setting": "[1]; APPtg mice, 2.5 days, 2 × 3.0 mg/kg day 1, 2, 1 × 3.0 mg/kg day 3, mean ± SEM vs Tylose control", "result": "−12.4 ± 1.9", "unit": "%"},
      {"measurement": "reduction of Aβ40", "setting": "[1]; four weeks study, 3 mg/kg/day in two subdoses, APPtg mice", "result": 17.2, "unit": "%"},
      {"measurement": "Aβ40 levels in vivo (result in words)", "setting": "[1]; in vivo test, FIG. 3 (short term experiment)", "result": "statistically significant reduction"},
      {"measurement": "reduction of the Aβ40 levels", "setting": "[1]; short term in vivo experiment (2.5 days, 3 mg/kg twice a day), APPtg mice, p=0.0003", "result": 12.4, "unit": "%"},
      {"measurement": "reduction of the cerebral Aβ40 levels", "setting": "[1]; two weeks treatment, 3 mg/kg once a day, APPtg mice, p=0.024", "result": 18.6, "unit": "%"},
      {"measurement": "inhibition at 1.56 µM", "setting": "[2]; Exp. 1, 17 hours incubation", "result": 3.5, "unit": "%"},
      {"measurement": "inhibition at 1.56 µM", "setting": "[2]; Exp. 2, 17 hours incubation", "result": -4.5, "unit": "%"},
      {"measurement": "inhibition at 3.12 µM", "setting": "[2]; Exp. 1, 17 hours incubation", "result": 6.5, "unit": "%"},
      {"measurement": "inhibition at 3.12 µM", "setting": "[2]; Exp. 2, 17 hours incubation", "result": -16.1, "unit": "%"},
      {"measurement": "inhibition at 6.25 µM", "setting": "[2]; Exp. 1, 17 hours incubation", "result": 4.1, "unit": "%"},
      {"measurement": "inhibition at 6.25 µM", "setting": "[2]; Exp. 2, 17 hours incubation", "result": 12.1, "unit": "%"},
      {"measurement": "inhibition at 12.5 µM", "setting": "[2]; Exp. 1, 17 hours incubation", "result": 17.8, "unit": "%"},
      {"measurement": "inhibition at 12.5 µM", "setting": "[2]; Exp. 2, 17 hours incubation", "result": 23.2, "unit": "%"},
      {"measurement": "inhibition at 25 µM", "setting": "[2]; Exp. 1, 17 hours incubation", "result": 24.5, "unit": "%"},
      {"measurement": "inhibition at 25 µM", "setting": "[2]; Exp. 2, 17 hours incubation", "result": 48.9, "unit": "%"},
      {"measurement": "inhibition at 50 µM", "setting": "[2]; Exp. 1, 17 hours incubation", "result": 26.6, "unit": "%"},
      {"measurement": "inhibition at 50 µM", "setting": "[2]; Exp. 2, 17 hours incubation", "result": 62.3, "unit": "%"},
      {"measurement": "generation/secretion of Aβ42 (result in words)", "setting": "[2]; FIG. 2", "result": "increasing inhibition of Aβ42 with an increasing concentration"},
      {"measurement": "generation/secretion of Aβ42 (result in words)", "setting": "[2]; FIG. 2, listed as formula 1A", "result": "inhibited"},
      {"measurement": "inhibition at 1.56 µM", "setting": "[3]; [5]", "result": 3.2, "unit": "%"},
      {"measurement": "inhibition at 1.56 µM", "setting": "[3]; [6]", "result": -16, "unit": "%"},
      {"measurement": "inhibition at 3.12 µM", "setting": "[3]; [5]", "result": 6.1, "unit": "%"},
      {"measurement": "inhibition at 3.12 µM", "setting": "[3]; [6]", "result": -8, "unit": "%"},
      {"measurement": "inhibition at 6.25 µM", "setting": "[3]; [5]", "result": 20.9, "unit": "%"},
      {"measurement": "inhibition at 6.25 µM", "setting": "[3]; [6]", "result": 2.8, "unit": "%"},
      {"measurement": "inhibition at 12.5 µM", "setting": "[3]; [5]", "result": 33.9, "unit": "%"},
      {"measurement": "inhibition at 12.5 µM", "setting": "[3]; [6]", "result": 24.8, "unit": "%"},
      {"measurement": "inhibition at 25 µM", "setting": "[3]; [5]", "result": 50.1, "unit": "%"},
      {"measurement": "inhibition at 25 µM", "setting": "[3]; [6]", "result": 50.3, "unit": "%"},
      {"measurement": "inhibition at 50 µM", "setting": "[3]; [5]", "result": 81.3, "unit": "%"},
      {"measurement": "inhibition at 50 µM", "setting": "[3]; [6]", "result": 88.5, "unit": "%"},
      {"measurement": "generation/secretion of Aβ40 (result in words)", "setting": "[3]; FIG. 1", "result": "increasing inhibition of Aβ40 with an increasing concentration"},
      {"measurement": "generation/secretion of Aβ40 (result in words)", "setting": "[3]; FIG. 1, listed as formula 1A", "result": "inhibited"},
      {"measurement": "reduction for Aβ42", "setting": "[4]; four weeks study, 3 mg/kg/day in two subdoses", "result": 27.4, "unit": "%"},
      {"measurement": "Level of Aβ42, reduction (−) and/or stimulation (+) of cerebral Aβ levels", "setting": "[4]; 2 weeks, 1 × 3.0 mg/kg/day, mean ± SEM", "result": "−16.3 ± 3.7", "unit": "%"},
      {"measurement": "Level of Aβ42, reduction (−) and/or stimulation (+) of cerebral Aβ levels", "setting": "[4]; 4 weeks, 2 × 1.5 mg/kg/day, mean ± two-sided confidence interval", "result": "−27.4 ± 27.2", "unit": "° %"},
      {"measurement": "Level of Aβ42, reduction (−) and/or stimulation (+) of cerebral Aβ levels", "setting": "[4]; 2.5 days, 2 × 3.0 mg/kg day 1, 2, 1 × 3.0 mg/kg day 3, mean ± SEM vs Tylose control", "result": "+5.1 ± 3.0%"},
      {"measurement": "increase of Aβ42 levels", "setting": "[4]; short term in vivo experiment (2.5 days, 3 mg/kg twice a day), p=0.9136", "result": 5.1, "unit": "%"},
      {"measurement": "reduction of the cerebral Aβ42 levels", "setting": "[4]; two weeks treatment, 3 mg/kg once a day, p=0.0096", "result": 16.3, "unit": "%"}
    ]}
  ]
}
